Values of other authors, collected in patent US20220259243A1, “IRON(III) AND GALLIUM(III) METAL ORGANIC POLYHEDRA, METHODS OF MAKING SAME, AND USES THEREOF” (The Research Foundation for The State University of New York, priority 2019, published 2022).

Conditions: 37° C., 4.7 Tesla, neutral pH

- r1 relaxivity: 3 mM⁻¹ s⁻¹
Structure (SMILES): CNC[C@H](O)[C@@H](O)[C@H](O)[C@H](O)CO.CNC[C@H](O)[C@@H](O)[C@H](O)[C@H](O)CO.O=C([O-])CN(CCN(CC(=O)[O-])CC(=O)O)CCN(CC(=O)[O-])CC(=O)O.[Gd+3] [Magnevist]
